Earlier results, collected in patent US20050232952A1, “Self emulsifying drug delivery systems for poorly soluble drugs” (priority 2002, published 2005).

Settings: humans

CC(=O)O[C@H]1C(=O)[C@@]2(C)[C@H]([C@H](OC(=O)c3ccccc3)[C@]3(O)C[C@H](OC(=O)[C@H](O)[C@@H](NC(=O)c4ccccc4)c4ccccc4)C(C)=C1C3(C)C)[C@]1(OC(C)=O)CO[C@@H]1C[C@@H]2O [paclitaxel, Paclitaxel]
systemic bioavailability after oral paclitaxel administration: less than 6%
